In EP1756125B1, “1,1,3,3,3-[…]-1-OXO/THIO-1LAMBDA5,3LAMBDA5-DIPHOSPHAZ-2-ENES, METHOD FOR PRODUCING THEM AND THEIR USE AS AGENTS FOR […] […] […] UREA” (SKW STICK[…] GmbH, priority 2004, dated 2005):

Test system: Urease
Experiment: Test for urease-inhibiting effect in soil (NH3-N release from urea, closed vessel with ammonia trap)
Format: biochemical
Conditions: soil at 40 % of maximum water capacity, 50 mg urea, t50 = day after start at which inhibition of urea hydrolysis is still 50 %
Protocol: 30 g auf 40 % der maximalen Wasserkapazität eingestellter Boden werden mit 1 ml Harnstofflösung entsprechend 50 mg Harnstoff versetzt. Gleichzeitig erfolgt die Applikation des Wirkstoffes, vorzugsweise in der Harnstofflösung gelöst. Die Konzentrationsangaben für die einzelnen geprüften Wirkstoffe in der nachfolgenden Tabelle beziehen sich auf die im Test verwendete Menge an Carbamidstickstoff. Der Boden, auf dessen Oberfläche die Harnstofflösung (mit und ohne Wirkstoff) aufgebracht wird, befindet sich in einem luftdicht verschlossenen Gefäß, in das gleichzeitig eine Vorlage eingebracht wird, die den aus dem Harnstoff freigesetzten Ammoniak als Ammonium auffängt. Durch tägliches Überspülen der Vorlage und Analyse der enthaltenen NH4-N-Mengen wird die NH3-N-Freisetzung aus dem Harnstoff bestimmt.
Aus der Summation der Ammonium-Mengen in der Vorlage wird die prozentuale Hemmung der Harnstoff-Hydrolyse in Abhängigkeit von der Zeit berechnet bzw. aus diesen Werten der t50-Wert rechnerisch ermittelt.
Als t50-Wert wird der Zeitpunkt in Tagen nach Versuchsbeginn verstanden, zu dem die Hemmung der Harnstoff-Hydrolyse noch 50 % beträgt.

SMILES | t50-Wert (Konz. 0,1 % HS-N-bez.) | t50-Wert (Konz. 0,5 % HS-N-bez.)
CCCCNP(N)(N)=NP(N)(N)=S [Verbindung 5, 3-Butylamino-1,1,3,3-tetraamino-1-thio-1λ^5,3λ^5-diphosphaz-2-en] | 14,5 d | –
CCCCNP(N)(=NP(N)(N)=O)NCCCC [Verbindung 2, 3,3-Bis(butylamino)-1,1,3,-triamino-1-oxo-1λ^5,3λ^5-diphosphaz-2-en] | 8,8 d | –
CCCNP(N)(=NP(N)(N)=S)NCCC [Verbindung 3, 3,3-Bis(propylamino)-1,1,3,-triamino-1-thio-1λ^5,3λ^5-diphosphaz-2-en] | 10,4 d | –
CCN(CC)P(N)(N)=NP(N)(N)=S [Verbindung 7, 3-Diethylamino-1,1,3,3-tetraamino-1-thio-1λ^5,3λ^5-diphosphaz-2-en] | – | 7,9 d
CCCCNP(N)(=NP(N)(N)=S)NCCCC [Verbindung 1, 3,3-Bis(butylamino)-1,1,3,-triamino-1-thio-1λ^5,3λ^5-diphosphaz-2-en] | 9,4 d | –
CCCNP(N)(=NP(N)(N)=O)NCCC [Verbindung 4, 3,3-Bis(propylamino)-1,1,3,-triamino-1-oxo-1λ^5,3λ^5-diphosphaz-2-en] | 9,6 d | –
CCCNP(N)(N)=NP(N)(N)=S [Verbindung 6, 3-Propylamino-1,1,3,3-tetraamino-1-thio-1λ^5,3λ^5-diphosphaz-2-en] | 14,2 d | –
